Legend:
Assay type in all cases: cell-based
[1] = system: BON human pancreatic carcinoid cell lines; experiment: Inhibition of growth of BON pancreatic carcinoid cells, MUH fluorescence; details: 192 h, read-out: ED50 (inhibition of cell growth)
Description: The BON human pancreatic carcinoid cell lines are cultured in a DMEM/F12K (1/1) medium to which 10% FCS is added.

[2] = system: HT29 colon cancer cell line; experiment: Inhibition of proliferation of HT29 colon cancer cells, tritiated thymidine incorporation; details: Homo sapiens, HT-29, 15 h, read-out: % Inhibition of cell proliferation (3HThdR incorporation)
Description: The HT29 colon cancer cell line employed (originally isolated from an adenocarcinoma of the human colon) was obtained from the ATCC (American Type Culture Collection).
The cells are cultured at the rate of 10^4 or 5×10^4 cells in a well containing 200 μl of culture medium composed of RPMI […] supplemented with 10% fetal calf serum, 2 mM of L-glutamine and 25 μM gentamicin.

[3] = system: LFC rat hepatocarcinoma cells; experiment: Inhibition of proliferation of LFC hepatocarcinoma cells, tritiated thymidine incorporation; details: concentrations of 0.1% and 1% by weight
Description: LFC rat hepatocarcinoma cells (VPR42, Villejuif) are cultured at the rate of 10^4 or 5×10^4 cells in a well containing 200 μl of culture medium.
Inhibition of cell proliferation is assessed using tritiated thymidine as described in Test 1. The assessment is made in comparison with the reference product, which is verapamil.

[4] = system: STC-1 mouse intestinal cancer cell lines; experiment: Growth of STC-1 carcinoid intestinal cells, cell counting or MUH fluorescence; details: STC-1, read-out: ED50 (cell growth)
Description: The STC-1 mouse intestinal cancer cell lines are cultured in a DMEM medium which contains 15% horse serum and 2.5% FCS. The products to be studied are added to the culture and cell growth is assessed by counting cells or, more frequently, by a fluorescence technique which is based on the cellular enzymic hydrolysis of the fluorogenic substrate 4-methylumbelliferyl heptanoate (MUH); thus, viable cells which are incubated with MUH generate a fluorescent signal which is proportional to their number and which is determined using a “Titentec Fluoroscan II” (Flow Laboratory), with the value being given in arbitrary fluorescence units.

SMILES: COc1ccc(CCN(C)CCCC(C#N)(c2ccc(OC)c(OC)c2)C(C)C)cc1OC (stereo not drawn) [verapamil]
- EC50 [1]: 43.6 µM
- inhibition at 0.025 % strength [2]: 17%
- inhibition at 0.05 % strength [2]: 17%
- inhibition at 0.1 % strength [2]: 27%
- percentage inhibition of proliferation [3]: 72%
- EC50 [4]: 13 µM
